Tested on: 695427-040-R-J1-PDC complex spheroid viability
Assay: Anticancer human tumor 695427-040-R-J1-PDC patient-derived colon adenocarcinoma cell line growth inhibition [RAS]
Conditions: for IC50: curve of first compound; for viability, T/C: stronger effect = lower value; active = viability on the fitted dose curve at most 10% of control; inactive = the rest
In short: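 Tumour cells grown as complex spheroids with HUVEC endothelial cells and mesenchymal stem cells, treated with RAS pathway inhibitor combinations. Each agent spans half-log steps from near clinical Cmax, or 10 microM where Cmax is unknown.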

[1] = second compound 0.000949 µM, first compound 0.000949 µM
[2] = second compound 0.000949 µM, first compound 0.003 µM
[3] = second compound 0.000949 µM, first compound 0.00949 µM
[4] = second compound 0.000949 µM, first compound 0.03 µM
[5] = second compound 0.000949 µM, first compound 0.0949 µM
[6] = second compound 0.000949 µM, first compound 0.3 µM
[7] = second compound 0.003 µM, first compound 0.000949 µM
[8] = second compound 0.003 µM, first compound 0.003 µM
[9] = second compound 0.003 µM, first compound 0.00949 µM
[10] = second compound 0.003 µM, first compound 0.03 µM
[11] = second compound 0.003 µM, first compound 0.0949 µM
[12] = second compound 0.003 µM, first compound 0.3 µM
[13] = second compound 0.00949 µM, first compound 0.000949 µM
[14] = second compound 0.00949 µM, first compound 0.003 µM
[15] = second compound 0.00949 µM, first compound 0.00949 µM
[16] = second compound 0.00949 µM, first compound 0.03 µM
[17] = second compound 0.00949 µM, first compound 0.0949 µM
[18] = second compound 0.00949 µM, first compound 0.3 µM
[19] = second compound 0.03 µM, first compound 0.000949 µM
[20] = second compound 0.03 µM, first compound 0.003 µM
[21] = second compound 0.03 µM, first compound 0.00949 µM
[22] = second compound 0.03 µM, first compound 0.03 µM
[23] = second compound 0.03 µM, first compound 0.0949 µM
[24] = second compound 0.03 µM, first compound 0.3 µM
[25] = second compound 0.0949 µM, first compound 0.000949 µM
[26] = second compound 0.0949 µM, first compound 0.003 µM
[27] = second compound 0.0949 µM, first compound 0.00949 µM
[28] = second compound 0.0949 µM, first compound 0.03 µM
[29] = second compound 0.0949 µM, first compound 0.0949 µM
[30] = second compound 0.0949 µM, first compound 0.3 µM
[31] = second compound 0.3 µM, first compound 0.000949 µM
[32] = second compound 0.3 µM, first compound 0.003 µM
[33] = second compound 0.3 µM, first compound 0.00949 µM
[34] = second compound 0.3 µM, first compound 0.03 µM
[35] = second compound 0.3 µM, first compound 0.0949 µM
[36] = second compound 0.3 µM, first compound 0.3 µM
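Note: viability read after seven days of drug exposure.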
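Throughout, for viability, T/C: 100% = DMSO vehicle control viability.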

CC1(C)CCC(Nc2ncc(C(F)(F)F)c(-c3c[nH]c4c(P(C)(C)=O)c(C#N)ccc34)n2)CN1 (stereo unspecified) + CCn1c(-c2cccnc2C(C)OC)c2c3cc(ccc31)N1CCOC(CC(NC(=O)C(C(C)C)N(C)C(=O)C3(F)CCN(C(=O)C#CC(C)(C)N(C)C)CC3)C(=O)N3CCCC(N3)C(=O)OCC(C)(C)C2)C1
> 0.3 µM: IC50 (second compound 0.000949 µM) | IC50 (second compound 0.003 µM) | IC50 (second compound 0.00949 µM) | IC50 (second compound 0.03 µM) | IC50 (second compound 0.0949 µM) | IC50 (second compound 0.3 µM)
inactive: viability, T/C [1] 85% | viability, T/C [2] 116% | viability, T/C [3] 95.5% | viability, T/C [4] 100% | viability, T/C [5] 85.6% | viability, T/C [6] 90.6% | viability, T/C [7] 104% | viability, T/C [8] 105% | viability, T/C [9] 81% | viability, T/C [10] 103% | viability, T/C [11] 86.9% | viability, T/C [12] 55.1% | viability, T/C [13] 108% | viability, T/C [14] 104% | viability, T/C [15] 98.3% | viability, T/C [16] 113% | viability, T/C [17] 103% | viability, T/C [18] 65.4% | viability, T/C [19] 101% | viability, T/C [20] 80.8% | viability, T/C [21] 89.9% | viability, T/C [22] 90.5% | viability, T/C [23] 97.5% | viability, T/C [24] 90.1% | viability, T/C [25] 105% | viability, T/C [26] 78.2% | viability, T/C [27] 107% | viability, T/C [28] 98% | viability, T/C [29] 93.3% | viability, T/C [30] 80.2% | viability, T/C [31] 75.7% | viability, T/C [32] 93.8% | viability, T/C [33] 84.3% | viability, T/C [34] 92.1% | viability, T/C [35] 85.7% | viability, T/C [36] 78.1%

CC1(C)CCC(Nc2ncc(C(F)(F)F)c(-c3c[nH]c4c(P(C)(C)=O)c(C#N)ccc34)n2)CN1 (stereo unspecified) + CCn1c(-c2cc(N3CCN(C)CC3)cnc2C(C)OC)c2c3cc(ccc31)-c1csc(n1)CC(NC(=O)C1CC1C)C(=O)N1CCCC(N1)C(=O)OCC(C)(C)C2
inactive: viability, T/C [1] 98% | viability, T/C [2] 101% | viability, T/C [3] 84% | viability, T/C [4] 92.2% | viability, T/C [5] 91.8% | viability, T/C [6] 77.6% | viability, T/C [7] 94.8% | viability, T/C [8] 85.5% | viability, T/C [9] 77.9% | viability, T/C [10] 77.2% | viability, T/C [11] 80.6% | viability, T/C [12] 69.3% | viability, T/C [13] 71.4% | viability, T/C [14] 65.6% | viability, T/C [15] 74.2% | viability, T/C [16] 61.7% | viability, T/C [17] 62.8% | viability, T/C [18] 63.6% | viability, T/C [19] 67.4% | viability, T/C [20] 60.7% | viability, T/C [21] 61% | viability, T/C [22] 58.5% | viability, T/C [23] 55.4% | viability, T/C [24] 51.4% | viability, T/C [25] 47.5% | viability, T/C [26] 44.3% | viability, T/C [27] 47.9% | viability, T/C [28] 47.4% | viability, T/C [29] 45.6% | viability, T/C [30] 40.3% | viability, T/C [31] 34.7% | viability, T/C [32] 41.8% | viability, T/C [33] 31.7% | viability, T/C [34] 36.4% | viability, T/C [35] 36.6% | viability, T/C [36] 33.4%
< 0.000949 µM: IC50 (second compound 0.0949 µM) | IC50 (second compound 0.3 µM)
> 0.3 µM: IC50 (second compound 0.000949 µM) | IC50 (second compound 0.003 µM) | IC50 (second compound 0.00949 µM) | IC50 (second compound 0.03 µM)

C[C@@H](NC(=O)c1ncnc(N)c1Cl)c1ncc(C(=O)Nc2cc(C(F)(F)F)c(Cl)cn2)s1 + CCn1c(-c2cccnc2C(C)OC)c2c3cc(ccc31)N1CCOC(CC(NC(=O)C(C(C)C)N(C)C(=O)C3(F)CCN(C(=O)C#CC(C)(C)N(C)C)CC3)C(=O)N3CCCC(N3)C(=O)OCC(C)(C)C2)C1
> 10 µM: IC50 (second compound 0.000949 µM) | IC50 (second compound 0.003 µM) | IC50 (second compound 0.00949 µM) | IC50 (second compound 0.03 µM) | IC50 (second compound 0.0949 µM) | IC50 (second compound 0.3 µM)
inactive: viability, T/C (second compound 0.000949 µM, first compound 0.0316 µM) 86.3% | viability, T/C (second compound 0.000949 µM, first compound 0.1 µM) 99.1% | viability, T/C (second compound 0.000949 µM, first compound 0.316 µM) 92.7% | viability, T/C (second compound 0.000949 µM, first compound 1 µM) 106% | viability, T/C (second compound 0.000949 µM, first compound 3.16 µM) 96.8% | viability, T/C (second compound 0.000949 µM, first compound 10 µM) 85.7% | viability, T/C (second compound 0.003 µM, first compound 0.0316 µM) 82.2% | viability, T/C (second compound 0.003 µM, first compound 0.1 µM) 93.6% | viability, T/C (second compound 0.003 µM, first compound 0.316 µM) 113% | viability, T/C (second compound 0.003 µM, first compound 1 µM) 98.3% | viability, T/C (second compound 0.003 µM, first compound 3.16 µM) 99.2% | viability, T/C (second compound 0.003 µM, first compound 10 µM) 68.5% | viability, T/C (second compound 0.00949 µM, first compound 0.0316 µM) 96.3% | viability, T/C (second compound 0.00949 µM, first compound 0.1 µM) 81.6% | viability, T/C (second compound 0.00949 µM, first compound 0.316 µM) 105% | viability, T/C (second compound 0.00949 µM, first compound 1 µM) 80.2% | viability, T/C (second compound 0.00949 µM, first compound 3.16 µM) 102% | viability, T/C (second compound 0.00949 µM, first compound 10 µM) 78.1% | viability, T/C (second compound 0.03 µM, first compound 0.0316 µM) 81% | viability, T/C (second compound 0.03 µM, first compound 0.1 µM) 99% | viability, T/C (second compound 0.03 µM, first compound 0.316 µM) 115% | viability, T/C (second compound 0.03 µM, first compound 1 µM) 97.5% | viability, T/C (second compound 0.03 µM, first compound 3.16 µM) 104% | viability, T/C (second compound 0.03 µM, first compound 10 µM) 82.4% | viability, T/C (second compound 0.0949 µM, first compound 0.0316 µM) 67.9% | viability, T/C (second compound 0.0949 µM, first compound 0.1 µM) 97.3% | viability, T/C (second compound 0.0949 µM, first compound 0.316 µM) 96.6% | viability, T/C (second compound 0.0949 µM, first compound 1 µM) 104% | viability, T/C (second compound 0.0949 µM, first compound 3.16 µM) 89.8% | viability, T/C (second compound 0.0949 µM, first compound 10 µM) 67.1% | viability, T/C (second compound 0.3 µM, first compound 0.0316 µM) 78.8% | viability, T/C (second compound 0.3 µM, first compound 0.1 µM) 94.4% | viability, T/C (second compound 0.3 µM, first compound 0.316 µM) 94.7% | viability, T/C (second compound 0.3 µM, first compound 1 µM) 98% | viability, T/C (second compound 0.3 µM, first compound 3.16 µM) 97.8% | viability, T/C (second compound 0.3 µM, first compound 10 µM) 67.9%

From PubChem BioAssay AID2060888 (Molecular Pharmacology Branch, DTP, NCI, 2025)
